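Each compound was tested at five concentrations against cells in 96-well plates for 48 hours. At the GI50, growth is halved. The concentration for full growth arrest is given as TGI.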
Assays:
Experiment in all cases: NCI-60 cell line screen, 48 h
786-0 renal = system: 786-0 renal
A498 renal = system: A498 renal
A549 NSCLC = system: A549 NSCLC
ACHN renal = system: ACHN renal
BT-549 breast = system: BT-549 breast
CAKI-1 renal = system: CAKI-1 renal
CCRF-CEM leukemia = system: CCRF-CEM leukemia
COLO 205 colon = system: COLO 205 colon
DU-145 prostate = system: DU-145 prostate
EKVX NSCLC = system: EKVX NSCLC
HCC-2998 colon = system: HCC-2998 colon
HCT-116 colon = system: HCT-116 colon
HCT-15 colon = system: HCT-15 colon
HL-60(TB) leukemia = system: HL-60(TB) leukemia
HOP-62 NSCLC = system: HOP-62 NSCLC
HOP-92 NSCLC = system: HOP-92 NSCLC
HS 578T breast = system: HS 578T breast
HT29 colon = system: HT29 colon
IGROV1 ovarian = system: IGROV1 ovarian
K-562 leukemia = system: K-562 leukemia
KM12 colon = system: KM12 colon
LOX IMVI melanoma = system: LOX IMVI melanoma
M14 melanoma = system: M14 melanoma
MALME-3M melanoma = system: MALME-3M melanoma
MCF7 breast = system: MCF7 breast
MDA-MB-231 breast = system: MDA-MB-231 breast
MDA-MB-435 = system: MDA-MB-435
MOLT-4 leukemia = system: MOLT-4 leukemia
NCI-H226 lung = system: NCI-H226 lung
NCI-H23 lung = system: NCI-H23 lung
NCI-H460 lung = system: NCI-H460 lung
NCI-H522 lung = system: NCI-H522 lung
NCI/ADR-RES ovarian = system: NCI/ADR-RES ovarian
OVCAR-3 ovarian = system: OVCAR-3 ovarian
OVCAR-4 ovarian = system: OVCAR-4 ovarian
OVCAR-5 ovarian = system: OVCAR-5 ovarian
OVCAR-8 ovarian = system: OVCAR-8 ovarian
PC-3 prostate = system: PC-3 prostate
RPMI-8226 leukemia = system: RPMI-8226 leukemia
RXF 393 renal = system: RXF 393 renal
SF-268 CNS = system: SF-268 CNS
SF-295 CNS = system: SF-295 CNS
SF-539 CNS = system: SF-539 CNS
SK-MEL-2 melanoma = system: SK-MEL-2 melanoma
SK-MEL-28 melanoma = system: SK-MEL-28 melanoma
SK-MEL-5 melanoma = system: SK-MEL-5 melanoma
SK-OV-3 ovarian = system: SK-OV-3 ovarian
SN12C renal = system: SN12C renal
SNB-19 CNS = system: SNB-19 CNS
SNB-75 CNS = system: SNB-75 CNS
SR leukemia = system: SR leukemia
SW-620 colon = system: SW-620 colon
T-47D breast = system: T-47D breast
TK-10 renal = system: TK-10 renal
U251 CNS = system: U251 CNS
UACC-257 melanoma = system: UACC-257 melanoma
UACC-62 melanoma = system: UACC-62 melanoma
UO-31 renal = system: UO-31 renal

SMILES: COc1ccc2c(c1)C(=O)c1c-2n(CCCN=[N+]=[N-])c(=O)c2cc(N)ccc12
- GI50 (786-0 renal): > 100 µM
- TGI (786-0 renal): > 100 µM
- GI50 (A498 renal): > 100 µM
- TGI (A498 renal): > 100 µM
- GI50 (A549 NSCLC): > 100 µM
- TGI (A549 NSCLC): > 100 µM
- GI50 (ACHN renal): > 100 µM
- TGI (ACHN renal): > 100 µM
- GI50 (BT-549 breast): > 100 µM
- TGI (BT-549 breast): > 100 µM
- GI50 (CAKI-1 renal): > 100 µM
- TGI (CAKI-1 renal): > 100 µM
- GI50 (CCRF-CEM leukemia): > 100 µM
- TGI (CCRF-CEM leukemia): > 100 µM
- GI50 (COLO 205 colon): > 100 µM
- TGI (COLO 205 colon): > 100 µM
- GI50 (DU-145 prostate): > 100 µM
- TGI (DU-145 prostate): > 100 µM
- GI50 (EKVX NSCLC): > 100 µM
- TGI (EKVX NSCLC): > 100 µM
- GI50 (HCC-2998 colon): > 100 µM
- TGI (HCC-2998 colon): > 100 µM
- GI50 (HCT-116 colon): > 100 µM
- TGI (HCT-116 colon): > 100 µM
- GI50 (HCT-15 colon): > 100 µM
- TGI (HCT-15 colon): > 100 µM
- GI50 (HL-60(TB) leukemia): > 100 µM
- TGI (HL-60(TB) leukemia): > 100 µM
- GI50 (HOP-62 NSCLC): > 100 µM
- TGI (HOP-62 NSCLC): > 100 µM
- GI50 (HOP-92 NSCLC): 58.8 µM
- TGI (HOP-92 NSCLC): > 100 µM
- GI50 (HS 578T breast): > 100 µM
- TGI (HS 578T breast): > 100 µM
- GI50 (HT29 colon): 47.6 µM
- TGI (HT29 colon): > 100 µM
- GI50 (IGROV1 ovarian): > 100 µM
- TGI (IGROV1 ovarian): > 100 µM
- GI50 (K-562 leukemia): > 100 µM
- TGI (K-562 leukemia): > 100 µM
- GI50 (KM12 colon): 53.6 µM
- TGI (KM12 colon): > 100 µM
- GI50 (LOX IMVI melanoma): > 100 µM
- TGI (LOX IMVI melanoma): > 100 µM
- GI50 (M14 melanoma): > 100 µM
- TGI (M14 melanoma): > 100 µM
- GI50 (MALME-3M melanoma): > 100 µM
- TGI (MALME-3M melanoma): > 100 µM
- GI50 (MCF7 breast): > 100 µM
- TGI (MCF7 breast): > 100 µM
- GI50 (MDA-MB-231 breast): > 100 µM
- TGI (MDA-MB-231 breast): > 100 µM
- GI50 (MDA-MB-435): > 100 µM
- TGI (MDA-MB-435): > 100 µM
- GI50 (MOLT-4 leukemia): > 100 µM
- TGI (MOLT-4 leukemia): > 100 µM
- GI50 (NCI-H226 lung): > 100 µM
- TGI (NCI-H226 lung): > 100 µM
- GI50 (NCI-H23 lung): > 100 µM
- TGI (NCI-H23 lung): > 100 µM
- GI50 (NCI-H460 lung): > 100 µM
- TGI (NCI-H460 lung): > 100 µM
- GI50 (NCI-H522 lung): > 100 µM
- TGI (NCI-H522 lung): > 100 µM
- GI50 (NCI/ADR-RES ovarian): > 100 µM
- TGI (NCI/ADR-RES ovarian): > 100 µM
- GI50 (OVCAR-3 ovarian): > 100 µM
- TGI (OVCAR-3 ovarian): > 100 µM
- GI50 (OVCAR-4 ovarian): 17.8 µM
- TGI (OVCAR-4 ovarian): > 100 µM
- GI50 (OVCAR-5 ovarian): > 100 µM
- TGI (OVCAR-5 ovarian): > 100 µM
- GI50 (OVCAR-8 ovarian): > 100 µM
- TGI (OVCAR-8 ovarian): > 100 µM
- GI50 (PC-3 prostate): > 100 µM
- TGI (PC-3 prostate): > 100 µM
- GI50 (RPMI-8226 leukemia): > 100 µM
- TGI (RPMI-8226 leukemia): > 100 µM
- GI50 (RXF 393 renal): 57.6 µM
- TGI (RXF 393 renal): > 100 µM
- GI50 (SF-268 CNS): > 100 µM
- TGI (SF-268 CNS): > 100 µM
- GI50 (SF-295 CNS): > 100 µM
- TGI (SF-295 CNS): > 100 µM
- GI50 (SF-539 CNS): > 100 µM
- TGI (SF-539 CNS): > 100 µM
- GI50 (SK-MEL-2 melanoma): > 100 µM
- TGI (SK-MEL-2 melanoma): > 100 µM
- TGI (SK-MEL-28 melanoma): > 100 µM
- GI50 (SK-MEL-5 melanoma): > 100 µM
- TGI (SK-MEL-5 melanoma): > 100 µM
- GI50 (SK-OV-3 ovarian): > 100 µM
- TGI (SK-OV-3 ovarian): > 100 µM
- GI50 (SN12C renal): > 100 µM
- TGI (SN12C renal): > 100 µM
- GI50 (SNB-19 CNS): > 100 µM
- TGI (SNB-19 CNS): > 100 µM
- TGI (SNB-75 CNS): > 100 µM
- GI50 (SR leukemia): 89.6 µM
- TGI (SR leukemia): > 100 µM
- GI50 (SW-620 colon): > 100 µM
- TGI (SW-620 colon): > 100 µM
- GI50 (T-47D breast): > 100 µM
- TGI (T-47D breast): > 100 µM
- GI50 (TK-10 renal): > 100 µM
- TGI (TK-10 renal): > 100 µM
- GI50 (U251 CNS): > 100 µM
- TGI (U251 CNS): > 100 µM
- GI50 (UACC-257 melanoma): > 100 µM
- TGI (UACC-257 melanoma): > 100 µM
- GI50 (UACC-62 melanoma): > 100 µM
- TGI (UACC-62 melanoma): > 100 µM
- GI50 (UO-31 renal): > 100 µM
- TGI (UO-31 renal): > 100 µM

Reference: PubChem BioAssay (NCI)
